These results are taken from US6569686B2, “Measurement of solubility-pH profiles” (Pion, Inc., priority 2000, dated 2003).

≈ marks a conversion by molar mass, not a printed value. Where “and” joins values, the source holds several entries; their conditions need not be identical. Equal values may be shown once. Read-outs that look alike come from different tables or passages of the source. Marks after values point to notes of the source that are not given here. A value given as a limit tells only on which side of the number the result lay.

For series [1] the following is noted: literature (Roseman, Yalkowsky 1973); cited from earlier work.
Series [2] is described as follows: true pKa of the compounds (commercial pKa instruments / literature). Type of series: physicochemical. To be noted: pION unpublished data (footnote f). The source says: For ionizable molecules in dilute solutions (where salt precipitation may be ignored), when the log (logarithm) of the measured solubility is plotted vs. pH, the curve is bilinear, with one segment having a zero slope and the other segment having a unit slope (positive for acids and negative for bases). […]. In a simple aqueous equilibrium system, the pH where the asymptotes of the horizontal and diagonal segments intersect is equal to the pKa of the solute. Under such ideal circumstances, it is possible to determine the pKa and the intrinsic aqueous solubility, So, of the compound from the crossing of the segments [Z. T. Chowhan, J. Pharm. Sci. 1978, 67, 1257-1260; W. H. Streng, H. G. H. Tan, Int. J. Pharm. 1985, 25, 135-145]. Such pKa values can be directly measured by commercially-available devices [C. D. Bevan, A. P. Hill, D. P. Reynolds, Patent Cooperation Treaty, WO 99/13328, Mar. 18, 1999; Sirius Analytical Instruments Ltd., UK].
(2) Also, a novel and simple computational method is developed to extract the aqueous intrinsic solubilities of drug molecules from data altered by DMSO-drug binding, or drug-drug aggregation reactions, or drug reactions with non-ionizable excipients, using the difference between the apparent pKa measured by the analytical device and the true pKa measured by analytical devices available commercially (e.g., from Sirius Analytical Instruments Ltd., Forest Row, E. Sussex, UK).
We discovered that if one determines the pKa^APP (in the presence of the DMSO effect) in the solubility assay, and subtracts from it the true pKa (determined using commercial instruments such as those from Sirius, UK), the difference, when subtracted from the logarithm of the apparent (DMSO-distorted) solubility, So^APP, yields the true aqueous solubility constant:
Since the pKas of the studied compounds are known (Table 2), it was possible to calculate the pKa shifts (Δ values in Table 1).

A short description of series [3]: solubility-pH by cosolvent method (50% v/v 1-propanol), 96-well UV. To be noted: universal buffer solution, aqueous buffer, kinetic from dmso stock, 0.26% v/v DMSO, read-out: So^APP (apparent intrinsic solubility). Type of series: physicochemical. On the procedure: The “sample” track on the left side of FIG. 4a depicts a series of steps leading up to the taking of the sample spectrum in a water-cosolvent solution. A known quantity of sample (37) is added in a known volume of the universal buffer solution of known pH (38), the amount of said sample being sufficient to cause precipitation to occur in the formed saturated solution (39). After waiting a period of time to allow the saturated solution to reach a desired steady state, the solution is filtered (40) to remove the solid, and obtain a clear solution (41).
A volume Y of a water-miscible cosolvent 42 is added to a volume Z of solution 41 to produce a new solution 43, in which the compound is diluted by Z/(Y+Z), from its concentration in solution 41. The spectrum of solution 43 is then immediately taken by the UV spectrophotometer (44), to minimize evaporation of the water-cosolvent solution. The mathematical treatment of the spectral data yields the area-under-the-curve of the filtered cosolvent sample solution (43), AUCS^COS. […]
18. As soon as the solutions are mixed in step 17, the robot transfers 5 μL from the diluted sample stock solution (using the 20 μL tips) to the blank solutions whose spectra had just been read in step 16: 14→17 (Sd→U). […]
The solubility is calculated according to equation (8). The results for phenazopyridine stated in Table 2 were determined by the cosolvent method.

A short description of series [4]: true aqueous intrinsic solubility corrected from pKa shifts. Format: physicochemical. As to conditions: for solubility: aqueous buffer, kinetic from dmso stock; for log So (corrected): log of μg/mL, horizontal asymptote of dashed curve in FIG. 8.
Series [5] is described as follows: intrinsic solubility by pSOL Model 3 acid-base titrator. To be noted: pION unpublished data (footnote f). Format: physicochemical. The protocol: Solubility determinations are illustrated with 15 sparingly-soluble generic, mostly-ionizable drugs (FIG. 1), covering about three orders of magnitude in solubilities, with the lowest value being about 0.1 μg/mL (terfenadine at high pH). The ionizable bases include amiloride, amitriptyline, chlorpromazine, miconazole, nortriptyline, phenazopyridine, propranolol, and terfenadine. […] Piroxicam was picked as an example of an ampholyte, and griseofulvin as an example of a non-ionizable molecule. The results of the solubility measurements were compared to literature equilibrium solubility-pH values from reliable sources, and to values determined by the pSOL Model 3 (pION) acid-base titrator [A. Avdeef, C. M. Berger, C. Brownell, Pharm . Res. 2000, 17, 85-89].

Series [6] in a line: apparent pKa from fitted log S vs. pH curve. Type of series: physicochemical. As to conditions: saturated solutions; for pKa shift Δ: pKa shift Δ = pKa^APP − pKa, heading: pKa shift Δ = pKa^APP − pKa; for pKa shift Δ / pKa shift Δ (apparent pKa minus true pKa): DMSO-containing saturated solutions (FIG. 8); for pKa shift Δ (apparent pKa minus true pKa): read-out: pKa shift Δ = pKa^APP − pKa.

A short description of series [7]: solubility-pH by aqueous dilution method, 96-well UV. Format: physicochemical. To be noted: kinetic from dmso stock.
For series [8] the following is noted: literature (footnotes a, b); cited from earlier work.
The conditions of series [9]: no DMSO, cited from earlier work; for Shake-Flask So: literature / private correspondence.
The conditions of series [10]: true pKa; literature sources (footnotes a, b, h); cited from earlier work.
Series [11] is described as follows: physchem.
Setting [12] is: universal buffer solution, 0.5% v/v DMSO, 4 h shaking, read-out: So^APP (apparent intrinsic solubility).
Where [13] appears, read: saturated pH-buffered aqueous solution (universal buffer), read-out: corrected So (intrinsic solubility corrected for drug-DMSO/drug-aggregate effects).
[14] abbreviates: pKa (I = 0.012 M, 50 vol % CH3CN).
[15] abbreviates: read-out: corrected So (intrinsic solubility corrected for drug-DMSO/drug-aggregate effects).

Turning to prostaglandin F2α, the “pKa shift Δ = pKa^APP − pKa” value in [1] is given as “Δ < or = 0”.
In the case of `Nc1ccc(/N=N/c2ccccc2)c(N)n1` [phenazopyridine], the pKa came out at 5.15 in series [2] and 5.83 in [6] (saturated solutions containing 0.26% v/v DMSO, read-out: apparent pKa (pKa^APP)). Besides, the solubility at 4 h in series [3] was found to be 12.2 µg/mL (≈ 57.2 µM). Moreover, the solubility in [4] (saturated pH-buffered aqueous solution (universal buffer), from So^APP in 0.26% v/v DMSO, cosolvent method, read-out: corrected So (intrinsic solubility corrected for drug-DMSO/drug-aggregate effects)) was 12.2 µg/mL. The “pSOL So” value in series [5] is 14.3^f μg/mL. In addition, the pKa shift Δ in series [6] was not below 0.
Regarding `COc1ccc2c(c1)c(CC(=O)O)c(C)n2C(=O)c1ccc(Cl)cc1` [indomethacin], the solubility at 4 h in [7] (setting [12]) was found to be 7.2 µg/mL (≈ 20.1 µM). For the same compound, in series [4] (setting [13]), the solubility stood at 4.1 µg/mL. Moreover, the “pSOL So” value in [8] was 2.0^a μg/mL. In series [9], the “Shake-Flask So” value was 2.0 µg/mL and 1 µg/mL.
Consider `CN(C)CCC=C1c2ccccc2CCc2ccccc21` [amitriptyline], for which, in [7] (setting [12]), the solubility at 4 h was 56.9 µg/mL (≈ 205 µM). For the same compound, the solubility in [4] (setting [13]) came out at 3 µg/mL. In addition, the pKa shift Δ in series [6] is less than 0. The pKa in series [10] is given as 9.45^a. In addition, the “pSOL So” value in series [8] is 2.0^a μg/mL. The “Shake-Flask So” value in series [9] is recorded as 2.0^a μg/mL.
For the compound `CC(C)NCC(O)COc1cccc2ccccc12` (centres unmarked) [propranolol], the solubility at 4 h in series [7] (aqueous buffer, in 0.5% v/v DMSO, read-out: solubility) is approximately 100 µg/mL (≈ 386 µM).
Consider `CCCN(CCC)S(=O)(=O)c1ccc(C(=O)O)cc1` [probenecid], for which the pKa in series [2] came out at 3.01. The solubility at 4 h in [7] (setting [12]) was determined as 4.6 µg/mL (≈ 16.1 µM). Besides, the solubility in series [4] (setting [13]) turned out to be 0.7 µg/mL. Moreover, in [5], the “pSOL So” value was 0.6^f μg/mL. Besides, the pKa shift Δ (apparent pKa minus true pKa) in series [6] is more than 0.
In the case of `COC1=CC(=O)C[C@@H](C)[C@]12Oc1c(Cl)c(OC)cc(OC)c1C2=O` [griseofulvin], the solubility at 4 h in [7] (setting [12]) is 37.6 µg/mL (≈ 107 µM). Moreover, the solubility in [4] (setting [13]) is 20.2 µg/mL. The pKa entry in [10] is given as “non-”. Besides, the “Shake-Flask So” value in series [9] is recorded as 9^d μg/mL.
Consider `O=C(O)CO` [Glycolic Acid, glycolic acid], for which the pKa in series [11] (setting [14]) was 4.56.
For `NCCS(=O)(=O)O` [Taurine, 2-aminoethanesulfonic acid], the pKa in [11] (setting [14]) worked out at 8.95.
Regarding `O=C(O)Cc1ccccc1Nc1c(Cl)cccc1Cl` [diclofenac], in [7] (setting [12]), the solubility at 4 h came out at 22.6 µg/mL (≈ 76.3 µM). Further, in series [4] (setting [13]), the solubility is 3.8 µg/mL. Further, the “pSOL So” value in series [8] is on record as 0.8^b μg/mL. Moreover, the “Shake-Flask So” value in [9] was 0.6^b μg/mL.
In the case of `CC(C)(C)c1ccc(C(O)CCCN2CCC(C(O)(c3ccccc3)c3ccccc3)CC2)cc1` (centres unmarked) [terfenadine], the pKa in series [2] turned out to be 9.53. The solubility at 4 h in series [7] (setting [12]) was 4.4 µg/mL (≈ 9.33 µM). The solubility in [4] (at high pH, read-out: solubility (lowest value)) was approximately 0.1 µg/mL; in series [4] (setting [13]), 0.1 µg/mL. The “pSOL So” value in series [5] is reported as 0.1^f μg/mL. Besides, in series [6], the pKa shift Δ (apparent pKa minus true pKa) is less than 0.
`CN1C(C(=O)Nc2ccccn2)=C(O)c2ccccc2S1(=O)=O` [piroxicam]: in series [7] (setting [12]), the solubility at 4 h was 10.5 µg/mL (≈ 31.7 µM). In series [4] (setting [15]), the solubility was 1.1 µg/mL. The “log So (corrected)” value in series [4] was 0.041. In [6] (0.5% v/v DMSO, solid curve in FIG. 8, read-out: apparent pKa (pKa^APP)), the pKa came out at 6.05. The pKa shift Δ in series [6] came to 0.98. Also, the “pKa deduced from literature solubility data” value in series [9] (Jinno et al.) is recorded as 5.63. Also, the “Shake-Flask So” value in series [9] is 9.1^i μg/mL and 8-16^j μg/mL.
For the compound `O=S(=O)(O)CCN1CCOCC1` [MES monohydrate, 4-morpholine-ethanesulfonic acid], the pKa in series [11] (pH 3, pKa (I = 0.020M)) was found to be 6.08; in series [11] (setting [14]) it was 6.24.
Take `CNCCC=C1c2ccccc2CCc2ccccc21` [nortriptyline]: the solubility at 4 h in series [7] (universal buffer solution, in 0.5% v/v DMSO, read-out: solubility) was more than 98 µg/mL.
With `CN(C)CCCN1c2ccccc2Sc2ccc(Cl)cc21` [chlorpromazine], the solubility at 4 h in series [7] (setting [12]) came out at 19.4 µg/mL (≈ 60.8 µM). Further, in series [4] (setting [15]), the solubility came to 3.4 µg/mL. The “log So (corrected)” value in [4] is listed as 0.528.
In the case of `O=C(O)c1ccc2ccccc2c1` [2-naphthoic acid], in series [2], the pKa was 4.16. Further, the solubility at 4 h in series [7] (setting [12]) worked out at 33.3 µg/mL (≈ 193 µM). Moreover, the solubility in [4] (setting [13]) stood at 20.2 µg/mL. Also, the pKa shift Δ (apparent pKa minus true pKa) in series [6] was more than 0. In addition, the “Shake-Flask So” value in series [9] is given as 22.4^g μg/mL.
The compound `OB(O)O` [Boric Acid, boric acid] had a pKa in series [11] (pH 3, pKa (I = 0.020M)) of 9.13.
Compound `Clc1ccc(COC(Cn2ccnc2)c2ccc(Cl)cc2Cl)c(Cl)c1` (centres unmarked) [miconazole] came in with a pKa in series [2] of 6.07. For the same compound, in series [7] (setting [12]), the solubility at 4 h was 11.1 µg/mL (≈ 26.7 µM). In series [4] (setting [13]), the solubility worked out at 1.6 µg/mL. The “pSOL So” value in series [5] is given as 0.7^f μg/mL. Besides, in series [6], the pKa shift Δ (apparent pKa minus true pKa) was less than 0.
For the compound `NS(=O)(=O)c1cc(C(=O)O)c(NCc2ccco2)cc1Cl` [furosemide], the “pSOL So” value in [8] is on record as 5.9^b μg/mL. In addition, the “Shake-Flask So” value in [9] is 12.0^b μg/mL.
